Source: patent publication EP1137632B1, “THIOUREA INHIBITORS OF HERPES VIRUSES” (Wyeth, priority 1998, dated 2000)
Values after ≈ are worked out from the molar mass of the structure shown. Read-outs that look alike come from different tables or passages of the source.

Experiments:
HSV-1 = test: HSV antiviral (ELISA) assay in Vero cells; type: cell-based, herpes simplex virus type 1; conditions: read-out: IC50 (ug/ml) HSV
Procedure, shortened: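 Vero cells in DMEM/2% FBS treated with compound 30 min before HSV-1 infection (MOI 0.006), ~24 h at 37 °C. Viral glycoprotein D measured by cell ELISA with β-galactosidase-linked secondary and fluorogenic methylumbelliferyl galactoside (ex 365/em 450 nm); IC50 versus no-compound fluorescence.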

VZV strain Ellen = test: VZV antiviral (ELISA) assay in human foreskin fibroblast cells; type: cell-based, varicella-zoster virus
Procedure, shortened: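 HFF cells infected with VZV Ellen (MOI <0.1) overnight, then plated at 3.5x10^4 cells/well with compound in DMEM + 2% FBS for three days at 37°C, 5% CO2. Viral glycoprotein II quantified by ELISA with β-galactosidase-linked secondary and 4-methylumbelliferyl-galactoside fluorescence (365/450 nm); IC50 versus no-compound fluorescence.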

[1] = test system: HCMV recombinant mutant virus; test: microbe, parasite or virus in culture; type: cell-based, human cytomegalovirus; conditions: Human betaherpesvirus 5, read-out: IC50 (ug/ml) HCMV
Procedure, shortened: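 Human foreskin fibroblasts were infected with a recombinant HCMV carrying a beta-glucuronidase gene under a viral promoter, in the presence of compound. At 96 h post-infection, lysate beta-glucuronidase activity was read colorimetrically or fluorometrically as a replication marker. IC50 came from the compound dose range.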

[2] = Human alphaherpesvirus 1, HSV-1 in Vero cells
[3] = Human alphaherpesvirus 3, Fibroblast; read-out: % inhibition 10 ug/ml VZV
[4] = Human alphaherpesvirus 3; VZV strain Ellen in HFF cells; read-out: IC50 (ug/ml) VZV

SMILES	IC50 (HSV-1; [2])	inhibition at 10 µg/mL (VZV strain Ellen; [3])	IC50 (VZV strain Ellen; [4])	IC50 [1]	IC50 (HSV-1; Human alphaherpesvirus 1, Vero)	inhibition at 10 µg/mL (VZV strain Ellen; Human alphaherpesvirus 3, Fibroblast, read-out: % inhibition 10 ug/ml VZV)	IC50 (VZV strain Ellen; Human alphaherpesvirus 3, HFF, read-out: IC50 (ug/ml) VZV)
COc1cc(NC(=O)c2ccccc2F)ccc1NC(=S)Nc1ccc(C)c(Cl)c1 [Example 419, N-{4-[3-(3-Chloro-4-methyl-phenyl)-thioureido]-3-methoxy-phenyl}-2-fluoro-benzamide]	0.2 µg/mL (≈ 0.451 µM)	3%	> 10 µg/mL	> 10 µg/mL	–	–	–
CSc1ccc(NC(=S)Nc2ccc(NC(=O)c3ccccc3F)c(C)c2)cc1Cl [Example 408, N-{4-[3-(3-Chloro-4-methylsulfanyl-phenyl)-thioureido]-2-methyl-phenyl}-2-fluoro-benzamide]	0.2 µg/mL (≈ 0.435 µM)	56%	> 10 µg/mL	6 µg/mL (≈ 13 µM)	–	–	–
COc1cc(OC)c(NC(=S)Nc2ccc(NC(=O)c3ccccc3F)c3ccccc23)cc1Cl [Example 325, N-{4-[3-(5-Chloro-2,4-dimethoxy-phenyl)-thioureido]-naphthalen-1-yl}-2-fluoro-benzamide]	1 µg/mL (≈ 1.96 µM)	33%	> 10 µg/mL	> 10 µg/mL	–	–	–
CC(NC(=S)Nc1ccc(NC(=O)c2cc3ccccc3o2)c(C(F)(F)F)c1)c1ccc(F)cc1 (stereo not drawn) [Example 1067, Benzofuran-2-carboxylic acid (4-{3-[1-(4-fluoro-phenyl)-ethyl]-thioureido}-2-trifluoromethyl-phenyl)-amide]	3.8 µg/mL (≈ 7.58 µM)	–	0.26 µg/mL (≈ 0.518 µM)	3.3 µg/mL (≈ 6.58 µM)	–	–	–
Cc1c(C)c(NC(=S)NC(C)c2ccc(F)cc2)c(C)c(C)c1NC(=O)c1ccccc1F (stereo not drawn) [Example 1023, 2-Fluoro-N-(4-{3-[1-(4-fluoro-phenyl)-ethyl]-thioureido}-2,3,5,6-tetramethyl-phenyl)-benzamide]	> 10 µg/mL	–	10 µg/mL (≈ 21.4 µM)	9 µg/mL (≈ 19.2 µM)	–	–	–
COc1cc(OC)c(NC(=S)Nc2ccc(NC(=O)c3ccccc3F)c(C#N)c2)cc1Cl [Example 277, N-{4-[3-(5-Chloro-2,4-dimethoxy-phenyl)-thioureido]-2-cyano-phenyl}-2-fluoro-benzamide]	> 10 µg/mL	0%	> 10 µg/mL	> 10 µg/mL	–	–	–
CC(NC(=S)Nc1ccc(NC(=O)c2ccccc2F)c(C(F)(F)F)c1)c1ccc(C#N)cc1 (stereo not drawn) [Example 1036, N-(4-{3-[1-(4-Cyano-phenyl)-ethyl]-thioureido}-2-trifluoromethyl-phenyl)-2-fluoro-benzamide]	4 µg/mL (≈ 8.22 µM)	–	0.31 µg/mL (≈ 0.637 µM)	2.1 µg/mL (≈ 4.32 µM)	–	–	–
COc1cc(NC(=S)NC(C)c2ccc(C#N)cc2)c(OC)cc1NC(=O)c1ccccc1F (stereo not drawn) [Example 1024, N-(4-{3-[1-(4-Cyano-phenyl)-ethyl]-thioureido}-2,5-dimethoxy-phenyl)-2-fluoro-benzamide]	> 10 µg/mL	–	> 10 µg/mL	> 10 µg/mL	–	–	–
COc1cc(C)c(Cl)cc1NC(=S)Nc1ccc(NC(=O)c2ccccc2F)c(C)c1 [Example 394, N-{4-[3-(5-Chloro-2-methoxy-4-methyl-phenyl)-thioureido]-2-methyl-phenyl}-2-fluoro-benzamide]	0.2 µg/mL (≈ 0.437 µM)	36%	> 10 µg/mL	> 10 µg/mL	–	–	–
CC(NC(=S)Nc1ccc(NC(=O)c2ccccc2F)c(C#N)c1)c1cc2ccccc2o1 (stereo not drawn) [Example 1043, N-{4-[3-(1-Benzofuran-2-yl-ethyl)-thioureido]-2-cyano-phenyl)-2-fluoro-benzamide]	> 10 µg/mL	–	0.099 µg/mL (≈ 0.216 µM)	> 10 µg/mL	–	–	–
CC(NC(=S)Nc1ccc(NC(=O)c2ccccc2F)c(OCC#N)c1)c1ccc(C#N)cc1 (stereo not drawn) [Example 1063, N-[4-{3-[1-(4-Cyano-phenyl)-ethyl]-thioureido}-2-(2-nitrilo-ethoxy)-phenyl]-2-fluoro-benzamide]	> 10 µg/mL	–	0.64 µg/mL (≈ 1.35 µM)	3.6 µg/mL (≈ 7.6 µM)	–	–	–
COc1cc(OC)c(NC(=S)Nc2cc(OC)c(NC(=O)c3ccccc3F)cc2C)cc1Cl [Example 286, N-{4-[3-(5-Chloro-2,4-dimethoxy-phenyl)-thioureido]-2-methoxy-5-methyl-phenyl}-2-fluoro-benzamide]	2 µg/mL (≈ 3.97 µM)	5%	> 10 µg/mL	40 µg/mL (≈ 79.4 µM)	–	–	–
CC(NC(=S)Nc1ccc(NC(=O)c2ccccc2F)c(OCC#N)c1)c1ccc(F)cc1 (stereo not drawn) [Example 1062, 2-Fluoro-N-[4-{3-[1-(4-fluoro-phenyl)-ethyl]-thioureido}-2-(2-nitrilo-ethoxy)-phenyl]-benzamide]	> 10 µg/mL	–	0.33 µg/mL (≈ 0.707 µM)	6 µg/mL (≈ 12.9 µM)	–	–	–
COc1cc(OC)c(NC(=S)Nc2ccc(NC(=O)c3ccccc3F)cc2C#N)cc1Cl [Example 381, N-{4-[3-(5-Chloro-2,4-dimethoxy-phenyl)-thioureido]-3-cyano-phenyl}-2-fluoro-benzamide]	> 10 µg/mL	13%	> 10 µg/mL	> 10 µg/mL	–	–	–
Cc1cc(NC(=O)c2cc(F)c(F)cc2F)ccc1NC(=S)NC(C)c1ccc(F)cc1 (stereo not drawn) [Example 1029, 2,4,5-Trifluoro-N-(4-{3-[1-(4-fluoro-phenyl)-ethyl]-thioureido}-3-methyl-phenyl)-benzamide]	> 10 µg/mL	–	0.53 µg/mL (≈ 1.15 µM)	> 10 µg/mL	–	–	–
COc1cc(OC)c(NC(=S)Nc2ccc(NC(=O)c3ccccc3F)c(OC)c2)cc1Cl [Example 303, N-{4-[3-(5-Chloro-2,4-dimethoxy-phenyl)-thioureido]-2-methoxy-phenyl}-2-fluoro-benzamide]	> 10 µg/mL	15%	> 10 µg/mL	> 10 µg/mL	–	–	–
CC(NC(=S)Nc1ccc(NC(=O)c2ccccc2F)c(Cl)c1)c1ccc(F)cc1 (stereo not drawn) [Example 1038, N-(2-Chloro-4-{3-[1-(4-fluoro-phenyl)-ethyl]-thioureido}-phenyl)-2-fluoro-benzamide]	3 µg/mL (≈ 6.73 µM)	–	0.04 µg/mL (≈ 0.0897 µM)	3.5 µg/mL (≈ 7.85 µM)	–	–	–
COc1cc(OC)c(NC(=S)Nc2ccc(NC(=O)c3c(F)cccc3F)cc2C)cc1Cl [Example 347, N-{4-[3-(5-Chloro-2,4-dimethoxy-phenyl)-thioureido]-3-methyl-phenyl}-2,6-difluoro-benzamide]	0.06 µg/mL (≈ 0.122 µM)	34%	> 10 µg/mL	10 µg/mL (≈ 20.3 µM)	–	–	–
COc1cc(OC)c(NC(=S)Nc2cc(OC)c(NC(=O)c3ccccc3F)cc2OC)cc1Cl [Example 260, N-{4-[3-(5-Chloro-2,4-dimethoxy-phenyl)-thioureido]-2,5-dimethoxy-phenyl}-2-fluoro-benzamide]	–	–	–	> 10 µg/mL	> 10 µg/mL	18%	7 µg/mL (≈ 13.5 µM)
CC(NC(=S)Nc1ccc(NC(=O)c2ccccc2F)c(C(F)(F)F)c1)c1ccc(Br)cc1 (stereo not drawn) [Example 1035, N-(4-{3-[1-(4-Bromo-phenyl)-ethyl)-thioureido}-2-trifluoromethyl-phenyl)-2-fluoro-benzamide]	3.1 µg/mL (≈ 5.74 µM)	–	0.032 µg/mL (≈ 0.0592 µM)	2.3 µg/mL (≈ 4.26 µM)	–	–	–
CC(=O)Nc1ccc(NC(=S)Nc2ccc(NC(=O)c3ccc4ccccc4c3O)c(Cl)c2)cc1 [Example 204, 1-Hydroxy-naphthalene-2-carboxylic acid {4-[3-(4-acetylamino-phenyl)-thioureido]-2-chloro-phenyl}-amide]	4 µg/mL (≈ 7.92 µM)	41%	> 10 µg/mL	8 µg/mL (≈ 15.8 µM)	–	–	–
CC(NC(=S)Nc1ccc(NC(=O)c2nccc3ccccc23)c(C#N)c1)c1ccc(F)cc1 (stereo not drawn) [Example 1069, Isoquinoline-1-carboxylic acid (2-cyano-4-{3-[1-(4-fluoro-phenyl)-ethyl]-thioureido}-phenyl)-amide]	> 10 µg/mL	–	0.019 µg/mL (≈ 0.0405 µM)	4 µg/mL (≈ 8.52 µM)	–	–	–
CC(NC(=S)Nc1ccc(NC(=O)c2cc3ccccc3cn2)c(C#N)c1)c1ccc(F)cc1 (stereo not drawn) [Example 1071, Isoquinoline-3-carboxylic acid (2-cyano-4-{3-[1-(4-fluoro-phenyl)-ethyl]-thioureido}-phenyl)-amide]	9 µg/mL (≈ 19.2 µM)	–	0.03 µg/mL (≈ 0.0639 µM)	> 10 µg/mL	–	–	–
Cc1cc(NC(=S)NC(C)c2ccc(F)cc2)ccc1NC(=O)c1nccc2ccccc12 (stereo not drawn) [Example 1072, Isoquinoline-1-carboxylic acid (4-{3-[1-(4-fluoro-phenyl)-ethyl]-thioureido}-2-methyl-phenyl)-amide]	> 10 µg/mL	–	0.027 µg/mL (≈ 0.0589 µM)	> 10 µg/mL	–	–	–
COc1cc(OC)c(NC(=S)Nc2ccc(NC(=O)c3ccccc3F)c(C)c2)cc1Cl [Example 310, N-{4-[3-(5-Chloro-2,4-dimethoxy-phenyl)-thioureido]-2-methyl-phenyl}-2-fluoro-benzamide]	2 µg/mL (≈ 4.22 µM)	40%	> 10 µg/mL	> 10 µg/mL	–	–	–
CC(NC(=S)Nc1ccc(NC(=O)c2ccccc2F)c(C(F)(F)F)c1)c1ccc(F)cc1 (stereo not drawn) [Example 1034, 2-Fluoro-N-(4-{3-[1-(4-fluoro-phenyl)-ethyl]-thioureido}-2-trifluoromethyl-phenyl)-benzamide]	> 10 µg/mL	–	0.03 µg/mL (≈ 0.0626 µM)	2.6 µg/mL (≈ 5.42 µM)	–	–	–
CC(NC(=S)Nc1ccc(NC(=O)c2ccccc2F)c(C#N)c1)c1ccc(C#N)cc1 (stereo not drawn) [Example 1042, N-(2-Cyano-4-{3-[1-(4-cyano-phenyl)-ethyl]-thioureido}-phenyl)-2-fluoro-benzamide]	4.2 µg/mL (≈ 9.47 µM)	–	0.54 µg/mL (≈ 1.22 µM)	2.1 µg/mL (≈ 4.73 µM)	–	–	–
